Measured values: patent publication US20170057838A1, “WATER CAPPING OF TAILINGS” (priority 2015, published 2017)

Tested on: One-year old yellow perch
Experiment: yellow perch gill structure after three weeks exposure
Type: in vivo
Conditions: added to extract solution
Text: In an attempt to establish a causative link with chemical constituents of test pond water caps, laboratory tests examined the effect of exposure to a naphthenic acid extract from fresh WIP MFT release water on perch gill structure. […] Sulphate and naphthenic acids comprise two of the main constituents of concern in capping water and may act in concert to induce gill damage. The resulting reduced gill surface area likely led to restricted transport of both naphthenic acids and oxygen into the perch body. […] The gill aneurysms presumably occur because the outer layer of the gill has been damaged.

O=S(=O)([O-])[O-].[Na+].[Na+] [sodium sulphate]
effect of addition to the naphthenic acid extract solution on gill toxicity: exacerbated the expression of toxicity
